# In patent US20250127700A1, “METHODS OF TREATING HYPERPIGMENTATION DISORDERS” (DermBiont, Inc., priority 2016, published 2025):
# “Also recorded” adds a separate entry of the source.
# Columns and labels:
# C47 BI/6 mice = assay: Lightening of regrowing hair pigmentation in depilated mice, topical application; type: in vivo; details: 4% HQ; for Average gray value within the hair shafts, awl hairs / Average gray value within the hair shafts, zig-zag hairs: topical daily for 19 days after depilation, scale 0 (white) to 255 (black); for Average gray value within the hair shafts, awl hairs: 100 μm (0.0057%) Bis or ruboxistaurin in DMSO:propylene glycol, control value 181; for Maximum degree of hair lightening, zig-zag hairs below versus above the median gray value: zig-zag (small) hairs, FIG. 3, 0.0057% ruboxistaurin; for Color of zig-zag hairs compared to vehicle control (micrograph): FIG. 1, 100 μm Bis or ruboxistaurin; for Average gray value within the hair shafts, zig-zag hairs: 100 μm (0.0057%) Bis or ruboxistaurin, control 159
# Description: Briefly, […] mice aged 8-9 weeks (3 per group) were depilated to remove back hairs. These mice have black hair but no melanin pigmentation in the skin. Melanocytes in the hair follicle are responsible for the coat color. […] All compounds and vehicle were applied daily to the depilated areas for 19 days after depilation, i.e. throughout the period during which the new hair shafts are produced following depilation. Representative hairs of each type: guard, awl (large follicles deep in the dermis or subcutaneous follicle), auchene, and zig-zag (smaller follicles set in the more superficial dermis and the most numerous type of coat hairs), were randomly plucked (50/mouse) and photographed under a dissecting microscope. For separate analysis, 20 dark and light hairs from each mouse were subjected to computer assisted analysis of “gray value” for the pixels comprising the hair shaft.
# Average gray value within the hair shafts were determined using ImageJ (NIH) software. The gray value is the sum of the gray values of all the pixels in the hair shaft divided by the number of pixels; and values range from 0 (white, no pigment) to 255 (black).
# To determine the maximum degree of hair lightening (attributable to maximal drug exposure), an additional comparison was made between zig-zag hairs in each group that fell below versus above the median gray value.
# PKC isoform η = PKC isoform η (Homo sapiens, UniProt P24723); details: Jirousek et al. J Med Chem 1996; cited from earlier work
# PKC isoform η, sequence (P24723 whole entry, canonical isoform): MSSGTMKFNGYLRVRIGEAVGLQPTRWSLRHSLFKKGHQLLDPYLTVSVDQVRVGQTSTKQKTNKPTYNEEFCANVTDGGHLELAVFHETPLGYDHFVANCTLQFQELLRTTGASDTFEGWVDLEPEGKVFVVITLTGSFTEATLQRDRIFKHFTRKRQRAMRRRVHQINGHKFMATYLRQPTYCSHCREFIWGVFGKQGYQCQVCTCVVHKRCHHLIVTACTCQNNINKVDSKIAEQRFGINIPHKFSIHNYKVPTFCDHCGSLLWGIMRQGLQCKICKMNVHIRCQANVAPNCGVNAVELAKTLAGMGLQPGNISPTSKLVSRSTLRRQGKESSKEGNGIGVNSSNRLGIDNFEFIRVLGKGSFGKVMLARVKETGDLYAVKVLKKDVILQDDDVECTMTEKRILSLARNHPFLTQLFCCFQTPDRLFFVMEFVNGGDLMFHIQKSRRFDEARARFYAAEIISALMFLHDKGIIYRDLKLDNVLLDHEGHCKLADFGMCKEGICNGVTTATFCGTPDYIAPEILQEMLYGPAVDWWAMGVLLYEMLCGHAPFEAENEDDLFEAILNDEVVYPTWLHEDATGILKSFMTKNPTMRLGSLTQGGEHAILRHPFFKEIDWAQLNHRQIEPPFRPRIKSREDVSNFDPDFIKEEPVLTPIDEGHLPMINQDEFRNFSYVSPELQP
# Solubility statement = type: physicochemical
# PKC isoform γ = PKC isoform γ (Homo sapiens, UniProt P05129); details: Jirousek et al. J Med Chem 1996; cited from earlier work
Solubility (Solubility statement),Structure (SMILES),"Average gray value within the hair shafts, awl hairs (C47 BI/6 mice)","Maximum degree of hair lightening, zig-zag hairs below versus above the median gray value (C47 BI/6 mice)",Color of zig-zag hairs compared to vehicle control (micrograph) (C47 BI/6 mice),"Average gray value within the hair shafts, zig-zag hairs (C47 BI/6 mice)",IC50 (PKC isoform η) [nM],IC50 (PKC isoform γ) [nM]
,"Oc1ccc(O)cc1 [HQ, hydroquinone]",168,minimally lighter than control hairs,minimal color difference,156,,
poorly soluble,"CN(C)CC1CCn2cc(c3ccccc32)C2=C(C(=O)NC2=O)c2cn(c3ccccc23)CCO1 (centres unmarked) [ruboxistaurin, 9-[(dimethylamino)methyl]-6,7,10,11-tetrahydro-9H,18H-5,21:12,17-di(metheno)dibenzo[e,k]pyrrolo[3,4-h][1,2,13]oxadiazacyclohexadecine-18,20-dione]",155,lighter than both control and 4% HQ hairs,significantly lighter; also recorded: lightest,134,52,300
